Laboratory results published in patent US11014904B2, “1,2,4-triazine-3-amine derivative, preparation method therefor, and use thereof in medicine” (Jiangsu Hengrui Medicine Co., Ltd., priority 2017, dated 2021).

Assay: Pharmacokinetics assay in mice
Type: in vivo
Conditions: mouse, po, C57 mice (female), intragastric, 2 mg/kg, plasma; for Vd/F: read-out: Apparent distribution volume Vz/F; for AUC: read-out: Area under curve AUC; for CL/F: read-out: Clearance CLz/F; for half-life: read-out: Half-life T½ (converted); for Cmax: read-out: Plasma concentration Cmax; for MRT: read-out: Residence time MRT
Experimental: Mice were used as test animals. The drug concentration in plasma at different time points was determined by LC/MS/MS method after intragastrical administration of the compounds of Examples 2, 3, 17, 18, 19, 20, 31 and 44 to mice. The pharmacokinetic behavior of the compounds of the present invention was studied and evaluated in mice.
Seventy-two C57 mice (female) were purchased from Shanghai Jiesijie Laboratory Animal Co., LTD, with Certificate No.: SCXK (Shanghai) 2013-0006, and equally divided into 8 groups (9 mice per group).
A certain amount of the test compound was weighed, and added with 5% by volume of DMSO, 5% by volume of tween 80 and 90% by volume of normal saline to prepare a 0.1 mg/mL colorless, clear and transparent solution.
After an overnight fast, C57 mice were administered intragastrically the test compounds at an administration dosage of 2.0 mg/kg and an administration volume of 0.2 mL/10 g.
The mice were intragastrically administered the compounds of Examples 2, 3, 17, 18, 19, 20, 31 and 44. 0.1 ml of blood was taken before administration and at 0.5, 1.0, 2.0, 4.0, 6.0, 8.0, 11.0 and 24.0 hours after administration. The samples were stored in heparinized tubes, and centrifuged for 10 minutes at 3,500 rpm to separate the blood plasma. The plasma samples were stored at −20° C.
The content of the test compounds in the plasma of mice after intragastrical administration of the test compounds at different concentrations was determined: 25 μL of mouse plasma at each time after administration were taken, added with 50 μL of the internal standard solution of camptothecin (100 ng/mL) and 200 μL of acetonitrile, vortex-mixed for 5 minutes, and centrifuged for 10 minutes (4000 rpm). 5 μL of the supernatant were taken from the plasma samples for LC/MS/MS analysis.

Row | Vd/F [L/kg] | AUC [ng·h/mL] | CL/F [mL/min/kg] | half-life [h] | Cmax [ng/mL] | MRT [h] | Structure (SMILES)
1 | 9.01 | 495 | 65 | 1.59 | 402 | 1.43 | Cc1ccnc2ccc(-c3nnc(N)nc3-c3ccc(F)cc3)cc12 [Example 18, 5-(4-Fluorophenyl)-6-(4-methylquinolin-6-yl)-1,2,4-triazin-3-amine]
2 | 14.7 | 412 | 78.3 | 2.17 | 441 | 1.79 | Nc1nnc(-c2cc(F)c3ncccc3c2)c(-c2ccccc2)n1 [Example 2, 6-(8-Fluoroquinolin-6-yl)-5-phenyl-1,2,4-triazin-3-amine]
3 | 15.3 | 204 | 162 | 1.09 | 265 | 1.17 | Cc1ccnc2ccc(-c3nnc(N)nc3-c3ccccc3F)cc12 [Example 17, 5-(2-Fluorophenyl)-6-(4-methylquinolin-6-yl)-1,2,4-triazin-3-amine]
4 | 1.57 | 5030 | 6.61 | 2.74 | 1960 | 3.13 | Cc1ncnc2ccc(-c3nnc(N)nc3-c3ccc(F)cc3)cc12 [Example 19, 5-(4-Fluorophenyl)-6-(4-methylquinazolin-6-yl)-1,2,4-triazin-3-amine]
5 | 16.7 | 339 | 95 | 2.02 | 302 | 2.02 | Cc1ccnc2c(F)cc(-c3nnc(N)nc3-c3ccccc3F)cc12 [Example 31, 6-(8-Fluoro-4-methylquinolin-6-yl)-5-(2-fluorophenyl)-1,2,4-triazin-3-amine]
6 | 3.05 | 1170 | 28 | 1.24 | 866 | 1.41 | Cc1ccnc2c(F)cc(-c3nnc(N)nc3-c3ccc(F)cc3)cc12 [Example 20, 6-(8-Fluoro-4-methylquinolin-6-yl)-5-(4-fluorophenyl)-1,2,4-triazin-3-amine]
7 | 15.7 | 419 | 78.6 | 2.3 | 395 | 1.61 | Nc1nnc(-c2ccc3ncccc3c2)c(-c2ccccc2)n1 [Example 3, 5-Phenyl-6-(quinolin-6-yl)-1,2,4-triazin-3-amine]
8 | 4.79 | 501 | 65 | 0.85 | 720 | 0.85 | CCc1ccnc2ccc(-c3nnc(N)nc3-c3ccc(F)cc3)cc12 [Example 44, 6-(4-Ethylquinolin-6-yl)-5-(4-fluorophenyl)-1,2,4-triazin-3-amine]
